# Key:
# [1] = system: CFA induced chronic inflammatory pain; experiment: CFA induced chronic inflammatory pain, von Frey tactile allodynia; format: in vivo, rats; conditions: for % Increase From Base Line, 8% topical: 8% (w/v) topical
# Method: In this test, tactile allodynia is assessed with calibrated von Frey filaments. […] Animals were allowed to recover from the anaesthesia and the baseline thermal and mechanical nociceptive thresholds of all animals were assessed one week after the administration of CFA. All animals were habituated to the experimental equipment for 20 minutes on the day prior to the start of the experiment. The test and control articles were administrated to the animals, and the nociceptive thresholds were measured at defined time points after drug administration to determine the analgesic responses to each of the six available treatments. The time points used were previously determined to show the highest analgesic effect for each test compound. […] Each enantiomer was dosed at 10, 30, 100 or 200 mg/Kg. The plasma concentration achieved with each dose was also determined and the reversal of pain response (as the % increase from baseline threshold) is plotted as a function of plasma concentration. The (S)-enantiomer of the invention was also administered topically to the animals in varying dosages (1%, 2%, 4% and 8% (w/v)) and the nociceptive thresholds measured at defined time points after drug administration to determine the analgesic responses to each of the available treatments. The time points used were previously determined to show the highest analgesic effect for each test compound. The response thresholds of the animals to tactile stimuli were measured using the Model 2290 Electrovonfrey anesthesiometer (IITC Life Science, Woodland Hills, Calif.) following the Hargreaves test. The animals were placed in an elevated Plexiglas enclosure set on a wire mesh surface. After 15 minutes of accommodation, a pre-calibrated Von Frey hair was applied perpendicularly to the plantar of the ipsilateral hind paws of the animals, with sufficient force, measured in grams, to elicit a crisp response of the paw. The response indicated a withdrawal from the painful stimulus and constituted the efficacy endpoint. […] This cut off force is used because it represent approximately 10% of the animals' body weight and it serves to prevent raising of the entire limb due to the use of stiffer hairs, which would change the nature of the stimulus. The data were expressed as percent increase from baseline threshold measured in grams.
# [2] = system: histamine-induced pruritis; experiment: Histamine-induced pruritis in vivo assay; set-up: species or system male ICR mice; conditions: scored over 40 minutes
# Method: Histamine induces pruritis (itching) in humans. Accordingly, this assay evaluates the efficacy of topically and orally administered (S)-enantiomer of the invention on histamine-induced pruritis in male ICR mice. […] One day prior to testing, the scapular regions on the animals were shaved with hair clippers. On the testing day, the animals were habituated for 60 minutes in the test chamber comprising of a clear plastic tube placed vertically on a flat surface. After the habituation period, the animals were removed from the plastic tube, placed in a restrainer, and injected with histamine at the shaved scapular region. The injections were made intradermally into the skin in small injection volumes (10 μL) using a Hamilton syringe. […] Immediately after the injections, the animals were returned to the test chambers and observed by cameras placed above the test chambers for a total of 50 minutes. The cameras were connected to a computer where digital video files were created, saved, and analyzed. The number of itching bouts was scored over 40 minutes. An “itching bout” was defined as the lifting of a hind leg, using it to scratch the scapular region, and then placing it back on the ground. […] The data were analyzed using GraphPad Prism 5 statistical analysis software and an unpaired t-test was used for univariate analysis. Results are expressed as mean±SEM. […]
# [3] = system: dental pain; experiment: Clinical trial for dental pain after extraction of impacted third molar teeth; format: in vivo; conditions: single 500 mg dose, human subjects
# Method: The purpose of this clinical trial was to compare the safety and efficacy (onset, duration of relief, and overall efficacy) of a single 500 mg dose of the (S)-enantiomer of the invention versus placebo dose for relief of pain following extraction of impacted third molar teeth.
# Sixty-one subjects were enrolled in the study. The mean age for the subjects was 20.4 years, and all subjects were male. The majority of subjects were Caucasians (95.1%).
# The severity and relief of the pain was measured using an 11-point Pain Intensity Numerical Rating Scale (graded from 0=no pain at all to 10=worst pain imaginable) (PINRS) and a 5-point Categorical Pain Relief Scale (REL). Subjects completed the PINRS after surgery, but before the administration of (S)-enantiomer of the invention. Efficacy variables were derived from the REL and PINRS scores and included total pain relief (TOTPAR), pain intensity difference (PID), and summed pain intensity difference (SPID) and evaluated at time points of 4, 6, 8, and 12 hours after administration of the (S)-enantiomer of the invention.
# [4] = target: T1, hNav1.7 (Homo sapiens, UniProt Q15858); conditions: (S)- versus (R)-enantiomer
# T1 sequence (Q15858 whole entry): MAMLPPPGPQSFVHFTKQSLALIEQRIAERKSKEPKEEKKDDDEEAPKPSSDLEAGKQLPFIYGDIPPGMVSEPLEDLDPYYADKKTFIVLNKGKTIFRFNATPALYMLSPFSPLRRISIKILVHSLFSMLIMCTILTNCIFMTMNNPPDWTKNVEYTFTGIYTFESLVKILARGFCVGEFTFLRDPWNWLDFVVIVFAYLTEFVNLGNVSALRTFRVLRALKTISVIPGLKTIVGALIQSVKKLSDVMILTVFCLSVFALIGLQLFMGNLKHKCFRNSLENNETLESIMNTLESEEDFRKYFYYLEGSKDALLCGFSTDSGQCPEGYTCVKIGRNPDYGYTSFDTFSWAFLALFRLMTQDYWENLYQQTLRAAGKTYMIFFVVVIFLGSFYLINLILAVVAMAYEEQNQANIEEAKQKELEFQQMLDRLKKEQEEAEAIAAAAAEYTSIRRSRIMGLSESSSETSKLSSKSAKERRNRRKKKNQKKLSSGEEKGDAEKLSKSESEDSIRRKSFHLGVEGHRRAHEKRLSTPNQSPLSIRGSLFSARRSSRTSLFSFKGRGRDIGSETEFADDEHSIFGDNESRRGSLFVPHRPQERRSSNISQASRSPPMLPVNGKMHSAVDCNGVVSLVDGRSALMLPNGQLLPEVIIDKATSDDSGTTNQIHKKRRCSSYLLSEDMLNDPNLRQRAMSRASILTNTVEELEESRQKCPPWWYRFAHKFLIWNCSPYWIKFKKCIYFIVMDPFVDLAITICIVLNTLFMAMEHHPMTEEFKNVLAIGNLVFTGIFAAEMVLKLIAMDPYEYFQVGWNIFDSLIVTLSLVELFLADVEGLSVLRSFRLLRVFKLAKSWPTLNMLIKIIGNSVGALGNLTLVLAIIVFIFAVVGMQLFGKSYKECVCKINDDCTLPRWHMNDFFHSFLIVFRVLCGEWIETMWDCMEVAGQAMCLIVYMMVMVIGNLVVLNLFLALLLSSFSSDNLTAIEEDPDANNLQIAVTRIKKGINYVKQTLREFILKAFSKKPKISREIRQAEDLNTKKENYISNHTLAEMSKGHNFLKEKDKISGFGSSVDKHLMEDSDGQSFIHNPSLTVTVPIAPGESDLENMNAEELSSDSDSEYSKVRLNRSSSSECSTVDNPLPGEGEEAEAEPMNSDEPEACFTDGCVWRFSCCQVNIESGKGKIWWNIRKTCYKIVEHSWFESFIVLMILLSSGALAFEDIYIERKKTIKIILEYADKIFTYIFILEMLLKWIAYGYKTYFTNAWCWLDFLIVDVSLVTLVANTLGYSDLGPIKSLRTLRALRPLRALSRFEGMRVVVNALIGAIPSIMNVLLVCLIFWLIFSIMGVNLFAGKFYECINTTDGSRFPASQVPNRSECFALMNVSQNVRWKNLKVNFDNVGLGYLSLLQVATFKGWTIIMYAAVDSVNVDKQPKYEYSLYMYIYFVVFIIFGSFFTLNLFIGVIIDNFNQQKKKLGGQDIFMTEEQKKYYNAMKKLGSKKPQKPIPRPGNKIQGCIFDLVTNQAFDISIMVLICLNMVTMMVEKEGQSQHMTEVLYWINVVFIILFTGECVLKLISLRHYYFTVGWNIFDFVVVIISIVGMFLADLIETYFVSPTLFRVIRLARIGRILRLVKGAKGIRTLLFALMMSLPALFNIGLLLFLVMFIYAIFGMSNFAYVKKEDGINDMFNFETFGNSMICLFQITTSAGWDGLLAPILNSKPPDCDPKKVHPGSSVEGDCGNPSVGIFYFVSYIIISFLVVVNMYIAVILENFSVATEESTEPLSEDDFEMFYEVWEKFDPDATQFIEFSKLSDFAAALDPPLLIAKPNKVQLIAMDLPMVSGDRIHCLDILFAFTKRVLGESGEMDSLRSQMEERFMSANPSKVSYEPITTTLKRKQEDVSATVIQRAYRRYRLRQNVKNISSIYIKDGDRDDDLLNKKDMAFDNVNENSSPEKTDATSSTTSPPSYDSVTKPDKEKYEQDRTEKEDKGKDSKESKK
# [5] = target: T1, hNav1.7; experiment: cell-based
# [6] = von Frey mechanical paw withdrawal threshold
# [7] = von Frey mechanical paw withdrawal threshold, listed as (S)-enantiomer
smiles,measurement,setting,value
"O=C1N(Cc2ccc(C(F)(F)F)o2)c2ccccc2[C@]12COc1cc3c(cc12)OCO3 [(I-S), (S)-1′-{[5-(trifluoromethyl)furan-2-yl]methyl}spiro[furo[2,3-f][1,3]benzodioxole-7,3′-indol]-2′(1′H)-one]","maximal effect, reversal of pain response","[1]; oral dosing, 200 mg/Kg, compared with the other enantiomer",greater maximal effect
same,"% Increase From Base Line, 1% topical",[1]; [6],0.62%
same,"% Increase From Base Line, 1% topical",[1]; [7],did not demonstrate an observable increase
same,"% Increase From Base Line, 2% topical","[1]; von Frey mechanical paw withdrawal threshold, 2% (w/v) topical",16.71%
same,"% Increase From Base Line, 4% topical","[1]; von Frey mechanical paw withdrawal threshold, 4% (w/v) topical",28.79%
same,"% Increase From Base Line, 8% topical",[1]; [6],45.06%
same,"% Increase From Base Line, 8% topical",[1]; [7],45.1%
same,total number of itching bouts,"[2]; 50 mg of 8% (w/v) topical, n=16, vehicle 134.3±13.31",89.00±10.51 itching bouts
same,total number of itching bouts,"[2]; 50 mg/Kg oral gavage, n=8, vehicle 42.88±6.667",17.25±6.310 itching bouts
same,onset of action,[3],slow onset of action
same,pain relief compared to placebo,[3],higher
same,"primary and all secondary endpoints (TOTPAR, PID, SPID) versus placebo",[3],consistent analgesic trend
same,statistical significance from the placebo,[3],not achieved
same,inhibition potency against hNav1.7 compared to the (R)-enantiomer,[4],> 1000 fold
same,IC50,[5],3 nM

# Source: patent US9480677B2, “Enantiomers of spiro-oxindole compounds and their uses as therapeutic agents” (Xenon Pharmaceuticals Inc., priority 2009, dated 2016)
